Reference: PubChem BioAssay (NCI)
Values joined by “and” are separate entries in the source; they are usually repeats but may differ in a detail not shown here. Equal values may be shown once.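 Grown in 96-well plates, cells were treated for 48 hours with each compound at five concentrations. Insufficient inhibition: endpoint recorded as highest concentration tested. GI50 marks 50% less growth. TGI denotes the concentration required for complete inhibition of growth.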

Key:
Experiment in all cases: NCI tumour cell line growth inhibition, 48 h
CAKI-1 renal = test system: CAKI-1 renal
HL-60(TB) leukemia = test system: HL-60(TB) leukemia
HS 578T breast = test system: HS 578T breast
HT29 colon = test system: HT29 colon
KM12 colon = test system: KM12 colon
NCI-H226 lung = test system: NCI-H226 lung
PC-3 prostate = test system: PC-3 prostate
SK-MEL-2 melanoma = test system: SK-MEL-2 melanoma
SNB-19 CNS = test system: SNB-19 CNS
UACC-257 melanoma = test system: UACC-257 melanoma

Row | Structure (SMILES) | GI50 (CAKI-1 renal) | TGI (CAKI-1 renal) | GI50 (HL-60(TB) leukemia) | TGI (HL-60(TB) leukemia) | GI50 (HS 578T breast) | TGI (HS 578T breast) | GI50 (HT29 colon) | TGI (HT29 colon) | GI50 (KM12 colon) | TGI (KM12 colon) | GI50 (NCI-H226 lung) | TGI (NCI-H226 lung) | GI50 (PC-3 prostate) | TGI (PC-3 prostate) | GI50 (SK-MEL-2 melanoma) | TGI (SK-MEL-2 melanoma) | GI50 (SNB-19 CNS) | TGI (SNB-19 CNS) | GI50 (UACC-257 melanoma) | TGI (UACC-257 melanoma)
1 | c1ccc2[nH]c(-c3ccc(-c4nccc5c4[nH]c4ccccc45)cc3)nc2c1 | 2.41 µM | 7.11 µM | 2.03 µM | 4.59 µM | 2.23 µM | 5.93 µM | 2.19 µM | 4.43 µM | 3.59 µM | 15.7 µM | 2.27 µM | 5.56 µM | 8.59 µM | 25.1 µM | 1.99 µM | 4.34 µM | 4.21 µM | 30.4 µM | 1.83 µM | 3.5 µM
2 | Cc1cc(O)c(C(C)C)cc1S(=O)(=O)O (tested in a mixture with another compound) | 0.435 µM | 10.8 µM | 0.279 µM | – | 0.281 µM | 1.92 µM | 0.337 µM | 1.1 µM | 0.381 µM | – | 0.85 µM | – | 0.318 µM | 9.01 µM | 0.502 µM | 2.46 µM | 0.423 µM | – | 0.963 µM | –
3 | CN(C)CCN1C(=O)c2ccccc2N(C)c2ccccc21 | > 100 µM | > 100 µM | > 100 µM | > 100 µM | > 100 µM | > 100 µM | > 100 µM | > 100 µM | > 100 µM | > 100 µM | > 100 µM | > 100 µM | > 100 µM | > 100 µM | > 100 µM | > 100 µM | > 100 µM | > 100 µM | > 100 µM | > 100 µM
4 | CCC(C)(CC(C)(C)C(=O)NCC(=O)NC(Cc1ccccc1)C(=O)NC(Cc1ccccc1)C(=O)NCC(=O)NC1CC(OC2CC(O)(C(=O)CO)Cc3c(O)c4c(c(O)c32)C(=O)c2c(OC)cccc2C4=O)OC(C)C1O)C(=O)NCC(C)O (configuration not stated) | 90.9 µg/mL | > 150 µg/mL | 1.32 µg/mL and 62.8 µg/mL | – | > 150 µg/mL | > 150 µg/mL | 91.9 µg/mL | > 150 µg/mL | 66.3 µg/mL | > 150 µg/mL | 41.4 µg/mL | > 150 µg/mL | > 150 µg/mL | > 150 µg/mL | 127 µg/mL | > 150 µg/mL | 69.2 µg/mL | > 150 µg/mL | > 150 µg/mL | > 150 µg/mL
5 | C#Cc1c(F)ccc2cc(O)cc(-c3ncc4c(N5CC6CCC(C5)N6)nc(OC[C@@]56CCCN5C[C@H](F)C6)nc4c3F)c12 | 17.5 µM | 35.6 µM | 8.23 µM | 26.6 µM | 8.47 µM | 28.2 µM | 9.99 µM | 31 µM | 5.03 µM | 17.5 µM | 15.1 µM | 35.1 µM | 14.8 µM | 33.8 µM | 16.9 µM | 32.9 µM | 13.4 µM | 26.3 µM | 18.1 µM | 35.1 µM
6 | COc1ccc(-c2cn(-c3cc(OC)c(OC)c(OC)c3)c(SCc3ccccc3)n2)cc1OC | > 100 µM | > 100 µM | > 100 µM | > 100 µM | > 100 µM | > 100 µM | > 100 µM | > 100 µM | > 100 µM | > 100 µM | > 100 µM | > 100 µM | > 100 µM | > 100 µM | > 100 µM | > 100 µM | > 100 µM | > 100 µM | > 100 µM | > 100 µM
7 | COc1cc(C[C@H]2c3cc(OC)c(OC)cc3CCN2C)c(Oc2cc3c(cc2OC)-c2c(OC)c(OC)cc4c2[C@H](C3)N(C)CC4)cc1OC | 16.1 µM | 23.9 µM and 42.6 µM | 5.71 µM | 13.9 µM and 19.4 µM | – | 13.1 µM | 4.05 µM | 17.4 µM and 14.6 µM | 13.3 µM | 20.4 µM and 26.7 µM | 19.7 µM | 29.4 µM and 34.6 µM | – | 33.7 µM | 14.9 µM | 18.5 µM and 28.8 µM | 20.3 µM | 41.8 µM and 54 µM | 1.8 µM | 8.76 µM and 3.37 µM
8 | COc1cc(OC(=O)c2ccccc2)cc2c1C(=O)C=CC2=O | – | 37 µM | – | 3.04 µM | – | 69.3 µM | – | 39.8 µM | – | 38.8 µM | – | 49.4 µM | – | 28.5 µM | – | 40.4 µM | – | 56.4 µM | – | 31.6 µM
9 | C=C(C)C(=O)O[C@H]1CC(=C)[C@@H]2C[C@H](O)[C@](O)(CCl)[C@@H]2[C@H]2OC(=O)C(=C)[C@@H]21 | 1.94 µM | 3.45 µM | 1.97 µM | 4.19 µM | 11.6 µM | 46.1 µM | 2.89 µM | 7.42 µM | 1.8 µM | 3.99 µM | 19.6 µM | 46.2 µM | 3.03 µM | 10.4 µM | 6.59 µM | 22 µM | 16.6 µM | 32.2 µM | 3.65 µM | 13.5 µM
10 | CC(C)N(Cc1ccccc1)c1c(S)ssc1=S | 0.661 µM | > 100 µM | 1.16 µM | 3.12 µM | 0.861 µM | 7.08 µM | 2.29 µM | 9.59 µM | 2.47 µM | 21.7 µM | 3.14 µM | 36.1 µM | 2.23 µM | 9.44 µM | 3.53 µM | 31.1 µM | 3.76 µM | > 100 µM | 1.54 µM | 6.2 µM
11 | O=C(CCCCCCCCC(=O)N/N=C\c1ccccc1O)N/N=C\c1ccccc1O | 0.318 µM | 14.9 µM | 0.203 µM | 0.687 µM | 3.55 µM | 41.6 µM | 4.62 µM | > 36.6 µM | 0.785 µM | > 40.3 µM | 0.49 µM | 11 µM | 0.855 µM | > 58.6 µM | 0.469 µM | > 36.8 µM | 0.763 µM | > 59.4 µM | 0.368 µM | 4.07 µM
12 | CCN(CC)CCCCNc1c2ccccc2[n+](C)c2c1[nH]c1ccccc12 | 2.05 µM | 14.4 µM | 5.69 µM | > 31 µM | 0.238 µM | 0.865 µM | 0.229 µM | 1.09 µM | 0.385 µM | 4.79 µM | 0.202 µM | 1.18 µM | 0.355 µM | 2.29 µM | 0.31 µM | 0.956 µM | 0.269 µM | 2.03 µM | 0.84 µM | 2.4 µM
